{"source": "BindingDB's records for PubMed 37722288", "about": "(Southwest Jiaotong University)", "key": {"[1]": {"target": "Cyclin-dependent kinase 9/cyclin T1 (Homo sapiens)", "assay": "Inhibition of CDK9/cyclin T1 (unknown origin)"}, "[2]": {"target": "Glycogen synthase kinase-3 beta (Homo sapiens) (UniProt P49841)", "sequence (P49841 whole entry, looked up)": "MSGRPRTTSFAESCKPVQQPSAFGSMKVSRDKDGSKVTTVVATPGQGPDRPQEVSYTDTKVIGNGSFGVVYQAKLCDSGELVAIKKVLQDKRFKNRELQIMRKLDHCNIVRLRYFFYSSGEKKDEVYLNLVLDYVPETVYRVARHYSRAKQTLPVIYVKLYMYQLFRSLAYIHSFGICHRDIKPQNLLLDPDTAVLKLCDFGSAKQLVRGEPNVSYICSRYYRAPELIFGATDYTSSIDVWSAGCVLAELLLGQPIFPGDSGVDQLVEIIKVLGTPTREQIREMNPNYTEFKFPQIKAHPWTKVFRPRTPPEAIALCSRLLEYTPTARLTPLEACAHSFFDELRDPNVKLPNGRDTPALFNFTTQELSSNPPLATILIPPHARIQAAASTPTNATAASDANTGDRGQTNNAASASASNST", "assay": "Inhibition of human recombinant GSK3beta"}, "[3]": {"target": "Glycogen synthase kinase-3 alpha (Homo sapiens, UniProt P49840)", "sequence (P49840 whole entry)": "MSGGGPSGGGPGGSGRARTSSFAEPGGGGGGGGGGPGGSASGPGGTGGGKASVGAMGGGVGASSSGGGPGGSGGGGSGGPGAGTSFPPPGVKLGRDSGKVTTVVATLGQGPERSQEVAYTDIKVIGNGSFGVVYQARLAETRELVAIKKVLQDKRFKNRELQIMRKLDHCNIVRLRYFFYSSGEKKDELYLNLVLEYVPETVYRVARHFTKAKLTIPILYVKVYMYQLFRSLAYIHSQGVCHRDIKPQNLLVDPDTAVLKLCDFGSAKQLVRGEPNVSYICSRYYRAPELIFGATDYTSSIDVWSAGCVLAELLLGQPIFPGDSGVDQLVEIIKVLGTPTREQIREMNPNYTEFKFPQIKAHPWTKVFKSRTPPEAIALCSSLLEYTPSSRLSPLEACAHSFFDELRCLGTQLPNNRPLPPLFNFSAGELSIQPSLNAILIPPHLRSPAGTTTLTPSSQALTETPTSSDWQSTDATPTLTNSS", "assay": "Inhibition of human recombinant GSK3alpha"}}, "data": [{"smiles": "COc1cc(CC(=O)Nc2cc(C3CCC3)[nH]n2)cc(OC)c1OC", "values": [{"measurement": "IC50", "setting": "[1]", "value": 5.71, "unit": "µM"}]}, {"smiles": "CCN1CCC(NC(=O)c2c(C)noc2C(C)C)CC1", "note": "[Name not given]", "values": [{"measurement": "IC50", "setting": "[2]", "value": 9.1, "unit": "µM"}]}, {"smiles": "COc1ncccc1C(=O)Nc1cc(S(C)(=O)=O)ccc1N1CCC(Oc2ccc(F)cc2F)CC1", "note": "[Name not given]", "values": [{"measurement": "IC50", "setting": "[3]", "value": 2.3, "unit": "µM"}]}]}
